From paper PMC6086040, “Real-time tracking of complex ubiquitination cascades using a fluorescent confocal on-bead assay” (BMC Biology, 2018)

Tests used:
Assay type in all cases: biochemical
Ube1 [1] = biological target: T1, Ube1 (Homo sapiens, UniProt P22314); assay: Gel-based Ube1~Ub thioester assay and on-bead UPS-CONA with Ube1 alone
T1 construct: gene UBA1
T1 sequence (P22314 2-1058): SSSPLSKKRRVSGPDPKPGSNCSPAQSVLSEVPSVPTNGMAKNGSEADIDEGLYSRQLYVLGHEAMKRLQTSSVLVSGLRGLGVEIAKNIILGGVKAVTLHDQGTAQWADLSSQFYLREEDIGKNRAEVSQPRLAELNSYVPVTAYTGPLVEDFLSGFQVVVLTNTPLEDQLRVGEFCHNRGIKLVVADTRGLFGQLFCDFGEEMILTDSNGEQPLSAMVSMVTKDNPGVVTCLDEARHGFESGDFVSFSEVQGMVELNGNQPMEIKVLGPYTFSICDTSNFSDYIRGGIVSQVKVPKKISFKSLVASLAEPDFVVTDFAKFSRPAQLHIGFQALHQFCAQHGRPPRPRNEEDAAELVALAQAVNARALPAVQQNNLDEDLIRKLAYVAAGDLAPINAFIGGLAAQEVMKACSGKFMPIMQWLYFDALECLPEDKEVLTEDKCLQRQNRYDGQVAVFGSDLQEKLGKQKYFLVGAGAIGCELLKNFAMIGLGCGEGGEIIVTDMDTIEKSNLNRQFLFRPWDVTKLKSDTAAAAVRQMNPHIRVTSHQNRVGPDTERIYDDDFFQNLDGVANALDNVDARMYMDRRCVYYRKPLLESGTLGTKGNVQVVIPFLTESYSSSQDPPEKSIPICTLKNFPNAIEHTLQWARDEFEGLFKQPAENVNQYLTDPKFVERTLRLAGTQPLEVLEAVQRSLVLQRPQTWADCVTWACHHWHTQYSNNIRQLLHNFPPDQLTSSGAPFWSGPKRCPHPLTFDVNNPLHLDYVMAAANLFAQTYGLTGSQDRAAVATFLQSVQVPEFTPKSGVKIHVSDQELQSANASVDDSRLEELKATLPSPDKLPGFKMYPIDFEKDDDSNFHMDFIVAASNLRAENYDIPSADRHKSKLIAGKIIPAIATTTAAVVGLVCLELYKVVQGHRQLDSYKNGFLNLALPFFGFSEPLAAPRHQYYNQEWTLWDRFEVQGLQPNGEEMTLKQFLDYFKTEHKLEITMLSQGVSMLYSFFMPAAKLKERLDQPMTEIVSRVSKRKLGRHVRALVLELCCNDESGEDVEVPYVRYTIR

Ube1 [2] = biological target: T1, Ube1; assay: Gel-based Ube1~Ub thioester assay with purified Ube1; also on-bead UPS-CONA with Ube1 alone (IC50 below […])
Ube2L3 = biological target: T2, Ube2L3 (Homo sapiens, UniProt P68036); assay: On-bead UPS-CONA, concentration-dependent inhibition on eGFP-Ube2L3
T2 construct: eGFP-Ube2L3
T2 sequence (P68036 whole entry, one chain of several): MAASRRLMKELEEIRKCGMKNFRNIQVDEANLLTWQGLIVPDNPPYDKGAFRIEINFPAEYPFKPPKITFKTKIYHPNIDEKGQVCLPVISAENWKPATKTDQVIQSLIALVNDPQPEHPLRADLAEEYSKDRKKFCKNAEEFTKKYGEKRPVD

IC50 (Ube1 [1]) | IC50 (Ube1 [2]) | IC50 (Ube2L3) | SMILES
16 µM |  |  | CCc1ccc(/C=C/C(=O)Nc2ccc(C(C)=O)cc2)o1 [heclin]
 | ~4.6 µM | 7.5 µM | Cc1ccc(S(=O)(=O)/C=C/C#N)cc1 [BAY 11-7082]
